Results taken from patent publication US10669310B2, “Peptide for cancer treatment and pharmaceutical composition containing same” (TOKUSHIMA UNIVERSITY, priority 2016, dated 2020).
Where two headings read alike, the source gives them in different places. *1 amine or outer side, *2 acyl side, *3 side chain or, on linkers, in order; H or OH if unused. Where a SMILES comes first, the peptide text is derived from it. Bridges are numbered along the chain shown (N, C = ends). [ ]: non-standard residue; d: D form. NH(CH2)4NH = C(CCN[*:2])CN[*:1]

Experiments:
[1] = system: MCF-7 cells; type: cell-based, human; details: for duration of significant cell growth inhibitory effects: 1 μM, E2-dependent growth of MCF-7
Experimental: (§1) Human breast cancer cell line MCF-7 and mammary epithelial cell line MCF-10A were purchased from American Type Culture Collection (ATCC, Manassas, Va., USA). Breast cancer cell line KPL-3C (J. Kurebayashi, et al., Br. J. Cancer 74, 200-207 (1996)) was kindly provided by Dr. Junichi Kurebayashi (Kawasaki Medical School). All cell lines were monolayer cultured in an appropriate medium supplemented with 10% FBS. The cells were maintained at 37° C. under humidified atmosphere containing 5% CO2.
(§2) In each experiment, the respective cells were seeded in a 48-well plate (2×10^4 cells/mL), a 6-well plate (3×10^5 cells/mL), or a 10-cm dish (2×10^6 cells/10 mL). MCF-7 cells were seeded in MEM (Thermo Fisher Scientific) supplemented with 10% FBS (Nichirei Biosciences Inc., Tokyo, Japan), 1% Antibiotic/Antimycotic solution (Thermo Fisher Scientific, Waltham, Mass., USA), 0.1 mM NEAA (Thermo Fisher Scientific), 1 mM sodium pyruvate (Thermo Fisher Scientific), and 10 μg/mL insulin (Sigma, St. Louis, Mo., USA). KPL-3C cells were seeded in RPMI (Thermo Fisher Scientific) supplemented with 10% FBS and 1% Antibiotic/Antimycotic solution. MCF-10A cells were seeded in MEBM (Lonza) supplemented with a Single Quots kit (BPE, hydrocortisone, hEGF, insulin, gentamycin/amphoterin-B) (Lonza, Walkersville, Md., USA) and 100 ng/mL cholera toxin. For 17β-estradiol (E2) (Sigma) stimulation, the media for MCF-7 and KPL-3C were changed to phenol red-free DMEM/F12 (Thermo Fisher Scientific) supplemented with 10% FBS, 1% Antibiotic/Antimycotic solution, 0.1 mM NEAA, 1 mM sodium pyruvate, and 10 μg/mL insulin on the day after seeding. Twenty-four hours later, the cells were treated with 10 nM E2 and a peptide (for example, 11R-ERAP or a stapled ERAP), or with 10 nM E2 alone.
When carrying out treatment with tamoxifen (Sigma) or fulvestrant (LKT laboratories, St. Paul, Minn., USA), cells were treated with 10 nM tamoxifen or 2 μM fulvestrant simultaneously with the above-mentioned treatment with E2 and a peptide or with E2 alone.
Cell growth assays on MCF-7, KPL-3C, and MCF-10A were carried out as described previously using a Cell Counting Kit-8 (CCK-8) (Dojindo, Kumamoto, Japan) (T. Yoshimaru, et al., Nat. Commun. 4, 2443 (2013)). The data are shown by mean±SE of three independent experiments.

[2] = type: in vivo; details: i.p. every day or every four days, 28 days
Experimental: KPL-3C cell suspensions (1×10^7 cells/mouse) were mixed with an equal volume of Matrigel (BD) and injected (200 μL in total) into the mammary fat pads of 6-week-old female BALB/c nude mice (Charles River Laboratories, Tokyo, Japan). The mice were housed in a pathogen-free isolation facility with a twelve-hour light/dark cycle and were fed solid rodent chow and water ad libitum. The tumors developed over several days and reached sizes of approximately 100 mm^3 [calculated as ½×(width×length^2)]. The mice were randomized into the following eleven treatment groups (five heads per group):
E2 was administered via application of a solution to the neck skin, and regarding the other treatments, administration was performed via intraperitoneal injection unless other administration methods are stated. The tumor volume was measured with calipers for 28 days, and then the mice were subjected to scheduled sacrifice to remove tumors. All the experiments were performed in accordance with the guidelines of the animal facility at Tokushima University.

[3] = biological target: T1, BIG3-PHB2 interaction (Homo sapiens, UniProt Q99623); assay: Co-immunoprecipitation with anti-BIG3 antibody in MCF-7 cells; type: cell-based; details: MCF-7, 1 μM, 24 hours after treatment
T1 construct: complex formation between the endogenous BIG3 and PHB2 in ERα-positive breast cancer cell line MCF-7; endogenous in cells; host or cells: MCF-7
T1 sequence (Q99623 2-299 limits assumed): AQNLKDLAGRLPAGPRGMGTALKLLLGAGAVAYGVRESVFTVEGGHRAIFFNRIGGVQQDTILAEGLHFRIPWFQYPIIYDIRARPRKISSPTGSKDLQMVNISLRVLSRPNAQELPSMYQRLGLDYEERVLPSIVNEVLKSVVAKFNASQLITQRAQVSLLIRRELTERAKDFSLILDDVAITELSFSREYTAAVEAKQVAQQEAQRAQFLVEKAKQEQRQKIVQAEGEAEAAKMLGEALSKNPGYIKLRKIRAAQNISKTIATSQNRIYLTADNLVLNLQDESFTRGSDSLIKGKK
Experimental: Immunoblot analyses were performed as described previously (T. Yoshimaru, et al., Nat. Commun. 4, 2443 (2013)). After performing SDS-PAGE, the membranes blotted with proteins were blocked with 4% BlockAce solution (Dainippon Pharmaceutical, Osaka, Japan) for three hours and then incubated with antibodies against the following proteins: BIG3 (1:1,000) (T. Yoshimaru, et al., Nat. Commun. 4, 2443 (2013)); PHB2 (1:1,000) (Abeam, Cambridge, UK); Akt, phosphorylated Akt (S473) (587F11, 1:1,000); p44/42 MAPK, phosphorylated p44/42 MAPK (T202/Y204) (1:1,000); α/β-tubulin (1:1,000) (Cell Signaling Technology, Danvers, Mass., USA); and LMNB1 (1:100) (Sigma). After incubation with an HRP-labeled secondary antibody (anti-mouse IgG-HRP, 1:5,000; anti-rat IgG-HRP; 1:5,000; or anti-rabbit IgG-HRP, 1:1,000) (Santa Cruz Biotechnology, Dallas, Tex., USA) for one hour, the blots were developed with an Enhanced Chemiluminescence (ECL) system (GE Healthcare, Buckinghamshire, UK) and scanned using an Image Reader LAS-3000 mini (Fujifilm, Tokyo, Japan). All the experiments were performed at least in triplicate.
Immunoprecipitation analysis was performed as described previously (T. Yoshimaru, et al., Nat. Commun. 4, 2443 (2013)). Cell lysates were pre-cleared with normal IgG and rec-Protein G Sepharose 4B (Thermo Fisher Scientific) at 4° C. for three hours. Then, the supernatants were incubated with 5 μg of an antibody against BIG3 or an antibody against PHB2 at 4° C. for twelve hours. Next, the antigen-antibody complexes were precipitated using rec-Protein G Sepharose 4B at 4° C. for one hour. The immunoprecipitated protein complexes were washed several times with a lysis buffer. Then, SDS-PAGE and immunoblot analyses were carried out as described above.

[4] = In vitro blood-brain barrier permeability test; type: in vitro ADME
Experimental: BIG3 is expressed in the brain though expression is weak (Kim, J. W. et al., Cancer Sci. 100, 1468-1478 (2009)). Then, since there were concerns of side effects due to the transfer of stapled ERAP to the brain, blood-brain-barrier permeability test was carried out on stapled ERAP. Blood-brain-barrier permeability of stapled ERAP (No. 12) was examined by placing stapled ERAP (No. 12) to the inner side (vascular cavity side) of the insert of a blood-brain barrier permeability kit, and measuring the concentration of stapled ERAP (No. 12) that passed through a filter specialized for intracerebral transferability assay and leaked into the well (cerebral parenchyma side) of the plate in 30 minutes. The permeability coefficient (Papp) at this time was calculated (2 or less: very low permeability; 2 to 10: low permeability; 10 to 20: high permeability; and 20 or higher: very high permeability).

[5] = system: MCF-10A cells; assay: Cell growth (MTT) assay, MCF-10A cells; type: cell-based, human; details: normal mammary epithelial cells, ERα-negative and BIG3-negative
Experimental: as §1
as §2, with “For 17β-estradiol (E2) (Sigma) stimulation, the media for MCF-7 and KPL-3C were changed to phenol red-free DMEM/F12 (Thermo Fisher Scientific) supplemented with 10% FBS, 1% Antibiotic/Antimycotic solution, 0.1 mM NEAA, 1 mM sodium pyruvate, and 10 μg/mL insulin on the day after seeding. Twenty-four hours later, the cells were treated with 10 nM E2 and a peptide (for example, 11R-ERAP or a stapled ERAP), or with 10 nM E2 alone.” left out

## CSCC[C@H](NC(=O)[C@H](CCC(N)=O)NC(=O)CNC(=O)CNC(=O)CNC(=O)[C@H](CCCNC(=N)N)NC(=O)[C@H](CCCNC(=N)N)NC(=O)[C@H](CCCNC(=N)N)NC(=O)[C@H](CCCNC(=N)N)NC(=O)[C@H](CCCNC(=N)N)NC(=O)[C@H](CCCNC(=N)N)NC(=O)[C@H](CCCNC(=N)N)NC(=O)[C@H](CCCNC(=N)N)NC(=O)[C@H](CCCNC(=N)N)NC(=O)[C@H](CCCNC(=N)N)NC(=O)[C@@H](N)CCCNC(=N)N)C(=O)N[C@@H](CC(C)C)C(=O)N[C@@H](CO)C(=O)N[C@@H](CC(=O)O)C(=O)N[C@@H](CC(C)C)C(=O)N[C@H](C(=O)N[C@@H](CC(C)C)C(=O)N[C@@H](CCC(N)=O)C(=O)N[C@@H](CC(C)C)C(=O)N[C@@H](CCCNC(=N)N)C(=O)N[C@@H](CCC(N)=O)C(=O)N[C@@H](CCCNC(=N)N)C(=O)O)[C@@H](C)O [11R-ERAP, 11R-GGG-QMLSDLTLQLRQR, reference compound] (H-RRRRRRRRRRRGGGQMLSDLTLQLRQR-OH; N-terminus and C-terminus assumed)
[1]
  inhibition rate of E2-dependent growth: 45%
[1]; 96 h
  IC50: 7.97 µM
[2]
  toxicity, body weight: No toxicity or significant body weight decrease

## CSCC[C@H](NC(=O)[C@@H](N)CCC(N)=O)C(=O)N[C@@H](CC(C)C)C(=O)N[C@@H](CO)C(=O)N[C@@H](CC(=O)O)C(=O)N[C@@H](CC(C)C)C(=O)N[C@H](C(=O)N[C@@H](CC(C)C)C(=O)N[C@@H](CCC(N)=O)C(=O)N[C@@H](CC(C)C)C(=O)N[C@@H](CCCNC(=N)N)C(=O)N[C@@H](CCCNC(=N)N)C(=O)N[C@@H](CCCNC(=N)N)C(=O)N[C@@H](CCCNC(=N)N)C(=O)N[C@@H](CCCNC(=N)N)C(=O)N[C@@H](CCCNC(=N)N)C(=O)N[C@@H](CCCNC(=N)N)C(=O)N[C@@H](CCCNC(=N)N)C(=O)O)[C@@H](C)O [QMLSDLTLQL-8R] (H-QMLSDLTLQLRRRRRRRR-OH; N-terminus and C-terminus assumed)
[1]
  IC50: 7.98 µM

## CSCC[C@H](NC(=O)[C@@H](N)CCC(N)=O)C(=O)N[C@@H](CC(C)C)C(=O)N[C@@H](CO)C(=O)N[C@@H](CC(=O)O)C(=O)N[C@@H](CC(C)C)C(=O)N[C@H](C(=O)N[C@@H](CC(C)C)C(=O)N[C@@H](CCC(N)=O)C(=O)N[C@@H](CC(C)C)C(=O)N[C@@H](CCCNC(=N)N)C(=O)N[C@@H](CCC(N)=O)C(=O)N[C@@H](CCCNC(=N)N)C(=O)N[C@@H](CCCNC(=N)N)C(=O)N[C@@H](CCCNC(=N)N)C(=O)N[C@@H](CCCNC(=N)N)C(=O)N[C@@H](CCCNC(=N)N)C(=O)N[C@@H](CCCNC(=N)N)C(=O)N[C@@H](CCCNC(=N)N)C(=O)N[C@@H](CCCNC(=N)N)C(=O)N[C@@H](CCCNC(=N)N)C(=O)O)[C@@H](C)O [QMLSDLTLQLRQR-8R] (H-QMLSDLTLQLRQRRRRRRRRR-OH; N-terminus and C-terminus assumed)
[1]
  IC50: 7.78 µM

## CSCC[C@@H](NC(=O)[C@H]1CCC(=O)NCCCCNC(=O)CC[C@@H](NC(C)=O)C(=O)N[C@H](CC(C)C)C(=O)N[C@H](CC(=O)O)C(=O)N[C@H](CO)C(=O)N1)C(=O)N[C@H](CCC(N)=O)C(N)=O [shRI stapled ERAP No. 12] (Ac-[dE][dL][dD][dS][dE][dM][dQ]-NH2; linker 1-5 via NH(CH2)4NH; N-terminus and C-terminus assumed)
[1]
  duration of significant cell growth inhibitory effects: seven
[1]; 96 h
  IC50: 0.53 µM
[3]
  inhibition of endogenous BIG3-PHB2 complex formation: inhibited endogenous BIG3-PHB2 complex formation

## CSCC[C@H](NC(=O)[C@H](CCC(N)=O)NC(C)=O)C(=O)N[C@H]1CCC(=O)NCCCCNC(=O)CC[C@@H](C(=O)N[C@@H](CC(C)C)C(=O)N[C@@H](CCC(N)=O)C(=O)N[C@@H](CC(C)C)C(=O)N[C@@H](CCCNC(=N)N)C(=O)N[C@@H](CCC(N)=O)C(=O)N[C@@H](CCCNC(=N)N)C(N)=O)NC(=O)[C@H](CC(C)C)NC(=O)[C@H](CC(=O)O)NC(=O)[C@H](CO)NC1=O [stapled ERAP No. 12]
[1]; 96 h
  IC50: 0.59 µM
[2]
  toxicity, body weight: No toxicity or significant body weight decrease
[4]; 30 μM
  Papp at 30 min, 30 μM: 0.177 ×10⁻⁶ cm/s
[4]; 30 minutes, 2 or less: very low permeability, read-out: blood-brain barrier permeability coefficient (Papp)
  Papp at 30 min: ≤ 2 ×10⁻⁶ cm/s
[4]; not told, 10 μM, read-out: Recovery Rate
  recovery at 30 minutes, 10 μM: 0%
[4]; not told, 30 μM, read-out: Recovery Rate
  recovery at 30 minutes, 30 μM: 0.01%

## CSCC[C@@H](NC(=O)[C@@H](CCC(N)=O)NC(C)=O)C(=O)N[C@@H]1CCC(=O)NCCCCNC(=O)CC[C@H](C(=O)N[C@H](CC(C)C)C(=O)N[C@H](CCC(N)=O)C(=O)N[C@H](CC(C)C)C(=O)N[C@H](CCCNC(=N)N)C(=O)N[C@H](CCC(N)=O)C(=O)N[C@H](CCCNC(=N)N)C(N)=O)NC(=O)[C@@H](CC(C)C)NC(=O)[C@@H](CC(=O)O)NC(=O)[C@@H](CO)NC1=O [stapled-D-ERAP No. 12]
[1]
  duration of significant cell growth inhibitory effects: seven
[1]; 96 h
  IC50: 0.44 µM
[5]
  effect on MCF-10A cell growth: not inhibited
[3]
  inhibition of endogenous BIG3-PHB2 complex formation: inhibited endogenous BIG3-PHB2 complex formation

## QMLSDLTLQLRQR (PHB2-binding peptide derived from BIG3) [ERAP, reference compound]
[1]
  effect on E2-dependent MCF-7 cell growth: did not show effects
